Data from ChEMBL document CHEMBL4311955, “HIV-1 Protease Inhibitors Incorporating Stereochemically Defined P2' Ligands To Optimize Hydrogen Bonding in the Substrate Envelope” (J Med Chem, 2019).

Experiments:
[1] = test system: Human immunodeficiency virus 1; assay: Antiviral activity against wild-type HIV1 NL4-3 infected in human TZM-bl cells preincubated for 18 hrs followed by viral infection and measured after 48 hrs by luciferase reporter gene assay; assay type: functional, organism-based; details: Human immunodeficiency virus 1, NL4-3, TZM-bl
Protease [2] = molecular target: Protease (Human immunodeficiency virus 1, UniProt Q9YQ12, I84V); assay: Inhibition of HIV1 NL4-3 protease I84V mutant expressed in Escherichia coli TAP-106 cells using EDANS/DABCYL-labelled 10-amino acid containing natural MA/CA cleavage site as substrate preincubated for 1 hr followed by substrate addition and measured for 60 mins by FRET assay
[3] = test system: Human immunodeficiency virus 1; assay: Antiviral activity against multidrug-resistant HIV1 NL4-3 KY24 infected in human TZM-bl cells preincubated for 18 hrs followed by viral infection and measured after 48 hrs by luciferase reporter gene assay; assay type: functional, organism-based; details: Human immunodeficiency virus 1, NL4-3 KY24, TZM-bl
[4] = test system: Human immunodeficiency virus 1; assay: Antiviral activity against multidrug-resistant HIV1 NL4-3 VSL20 infected in human TZM-bl cells preincubated for 18 hrs followed by viral infection and measured after 48 hrs by luciferase reporter gene assay; assay type: functional, organism-based; details: Human immunodeficiency virus 1, NL4-3 VSL20, TZM-bl
[5] = test system: Human immunodeficiency virus 1; assay: Antiviral activity against multidrug-resistant HIV1 NL4-3 SLK19 infected in human TZM-bl cells preincubated for 18 hrs followed by viral infection and measured after 48 hrs by luciferase reporter gene assay; assay type: functional, organism-based; details: Human immunodeficiency virus 1, NL4-3 SLK19, TZM-bl
Protease [6] = molecular target: Protease (Human immunodeficiency virus 1, UniProt Q9YQ12, A71V/I50V); assay: Inhibition of HIV1 NL4-3 protease I50V/A71V mutant expressed in Escherichia coli TAP-106 cells using EDANS/DABCYL-labelled 10-amino acid containing natural MA/CA cleavage site as substrate preincubated for 1 hr followed by substrate addition and measured for 60 mins by FRET assay
[7] = Selectivity ratio of EC50 for antiviral activity against multidrug-resistant HIV1 NL4-3 KY24 infected in human TZM-bl cells to EC50 for antiviral activity against wild-type HIV1 NL4-3 infected in human TZM-bl cells; assay type: functional
[8] = Selectivity ratio of EC50 for antiviral activity against multidrug-resistant HIV1 NL4-3 SLK19 infected in human TZM-bl cells to EC50 for antiviral activity against wild-type HIV1 NL4-3 infected in human TZM-bl cells; assay type: functional
[9] = Selectivity ratio of EC50 for antiviral activity against multidrug-resistant HIV1 NL4-3 VSL20 infected in human TZM-bl cells to EC50 for antiviral activity against wild-type HIV1 NL4-3 infected in human TZM-bl cells; assay type: functional
[10] = test system: Human immunodeficiency virus 1; assay: Potency index, ratio of darunavir EC50 to test compound EC50 for antiviral activity against multidrug-resistant HIV1 NL4-3 KY24 infected in human TZM-bl cells; assay type: functional

Sequence of Protease (Human immunodeficiency virus 1, UniProt Q9YQ12, A71V/I50V) (Q9YQ12 entry or part of it A71V/I50V): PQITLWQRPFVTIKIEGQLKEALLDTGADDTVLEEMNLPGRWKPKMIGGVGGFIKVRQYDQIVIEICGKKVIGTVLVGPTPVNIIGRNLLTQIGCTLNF
Sequence of Protease (Human immunodeficiency virus 1, UniProt Q9YQ12, I84V) (Q9YQ12 entry or part of it I84V): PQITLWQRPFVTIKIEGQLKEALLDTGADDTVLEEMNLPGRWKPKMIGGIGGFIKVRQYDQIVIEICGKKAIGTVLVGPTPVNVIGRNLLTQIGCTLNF

Structure (SMILES) | EC50 [1] [nM] | Ki (Protease [2]) [nM] | EC50 [3] [nM] | EC50 [4] [nM] | EC50 [5] [nM] | Ki (Protease [6]) [nM] | Ratio EC50 [7] | Ratio EC50 [8] | Ratio EC50 [9] | Ratio EC50 [10]
CC(C)CN(C[C@@H](O)[C@H](Cc1ccccc1)NC(=O)O[C@H]1CO[C@H]2OCC[C@H]21)S(=O)(=O)c1ccc([C@H](O)CO)cc1 | 189 | 0.283 | – | – | – | – | – | – | – | –
CC(C)CN(C[C@@H](O)[C@H](Cc1ccccc1)NC(=O)O[C@H]1CO[C@H]2OCC[C@H]21)S(=O)(=O)c1ccc([C@@H](C)O)cc1 | 7.5 | – | 360 | 148 | 100 | – | – | – | – | –
CCC(CC)CN(C[C@@H](O)[C@H](Cc1ccccc1)NC(=O)O[C@H]1CO[C@H]2OCC[C@H]21)S(=O)(=O)c1ccc([C@H](C)O)cc1 | 4.4 | – | 196 | 112 | 26 | – | – | – | – | –
CC[C@H](C)CN(C[C@@H](O)[C@H](Cc1ccccc1)NC(=O)O[C@H]1CO[C@H]2OCC[C@H]21)S(=O)(=O)c1ccc([C@H](O)CO)cc1 | 92 | 0.504 | – | – | – | – | – | – | – | –
CC[C@H](C)CN(C[C@@H](O)[C@H](Cc1ccccc1)NC(=O)O[C@H]1CO[C@H]2OCC[C@H]21)S(=O)(=O)c1ccc(CO)cc1 | 5.7 | 0.01 | 1090 | 310 | 52 | 0.08 | 191 | 9 | 54 | –
CC[C@H](C)CN(C[C@@H](O)[C@H](Cc1ccccc1)NC(=O)O[C@H]1CO[C@H]2OCC[C@H]21)S(=O)(=O)c1ccc([C@@H](C)O)cc1 | 4.2 | 0.095 | 342 | 291 | 91 | 0.132 | 81 | 22 | 69 | –
CC[C@H](C)CN(C[C@@H](O)[C@H](Cc1ccccc1)NC(=O)O[C@H]1CO[C@H]2OCC[C@H]21)S(=O)(=O)c1ccc([C@@H](O)CO)cc1 | 80 | 0.216 | – | – | – | – | – | – | – | –
CC(C)CN(C[C@@H](O)[C@H](Cc1ccccc1)NC(=O)O[C@H]1CO[C@H]2OCC[C@H]21)S(=O)(=O)c1ccc([C@H](C)O)cc1 | 4.7 | – | 352 | 117 | 31 | – | – | – | – | –
CCC(CC)CN(C[C@@H](O)[C@H](Cc1ccccc1)NC(=O)O[C@H]1CO[C@H]2OCC[C@H]21)S(=O)(=O)c1ccc(CO)cc1 | 4.2 | 0.005 | 495 | 426 | 36 | 0.055 | 118 | 9 | 101 | 2
CCC(CC)CN(C[C@@H](O)[C@H](Cc1ccccc1)NC(=O)O[C@H]1CO[C@H]2OCC[C@H]21)S(=O)(=O)c1ccc([C@@H](O)CO)cc1 | 40 | 0.057 | 507 | 100 | 116 | 0.074 | 13 | 3 | 3 | –
CCC(CC)CN(C[C@@H](O)[C@H](Cc1ccccc1)NC(=O)O[C@H]1CO[C@H]2OCC[C@H]21)S(=O)(=O)c1ccc([C@H](O)CO)cc1 | 41 | 0.134 | 1150 | 417 | 151 | 0.22 | 28 | 4 | 10 | –
CC(C)CN(C[C@@H](O)[C@H](Cc1ccccc1)NC(=O)O[C@H]1CO[C@H]2OCC[C@H]21)S(=O)(=O)c1ccc([C@@H](O)CO)cc1 | 176 | 0.098 | – | – | – | 0.09 | – | – | – | –
CCC(CC)CN(C[C@@H](O)[C@H](Cc1ccccc1)NC(=O)O[C@H]1CO[C@H]2OCC[C@H]21)S(=O)(=O)c1ccc([C@@H](C)O)cc1 | 5.1 | – | 345 | 420 | 32 | – | – | – | – | –
CC[C@H](C)CN(C[C@@H](O)[C@H](Cc1ccccc1)NC(=O)O[C@H]1CO[C@H]2OCC[C@H]21)S(=O)(=O)c1ccc([C@H](C)O)cc1 | 4.6 | 0.111 | 490 | 281 | 49 | 0.093 | 107 | 11 | 61 | –
